PubChem BioAssay AID602321 (The Scripps Research Institute Molecular Screening Center, 2012)
Activity calls are given as the source filed them. The rule behind the calls is not given here.

Experiments:
Test in all cases: ABPP selectivity among brain hydrolases, two doses – biochemical, gel-based competitive ABPP, mouse brain membrane, set 3, selectivity assay for DAGLb inhibitor project, late-stage follow-up (AID 602321)
[1] = tested on: Acyl-protein thioesterase 1 (Mus musculus) + Monoacylglycerol lipase ABHD6 (Mus musculus) + Acyl-protein thioesterase 2 (Mus musculus); conditions: gel-based competitive ABPP fluorescence
LYPLA1 = conditions: gel-based competitive ABPP fluorescence, stronger effect = higher value
[2] = target: Monoacylglycerol lipase ABHD6 (Mus musculus) (UniProt Q8R2Y0); conditions: gel-based competitive ABPP fluorescence, stronger effect = higher value
Chain of Monoacylglycerol lipase ABHD6 (Mus musculus) (Q8R2Y0 whole entry, looked up): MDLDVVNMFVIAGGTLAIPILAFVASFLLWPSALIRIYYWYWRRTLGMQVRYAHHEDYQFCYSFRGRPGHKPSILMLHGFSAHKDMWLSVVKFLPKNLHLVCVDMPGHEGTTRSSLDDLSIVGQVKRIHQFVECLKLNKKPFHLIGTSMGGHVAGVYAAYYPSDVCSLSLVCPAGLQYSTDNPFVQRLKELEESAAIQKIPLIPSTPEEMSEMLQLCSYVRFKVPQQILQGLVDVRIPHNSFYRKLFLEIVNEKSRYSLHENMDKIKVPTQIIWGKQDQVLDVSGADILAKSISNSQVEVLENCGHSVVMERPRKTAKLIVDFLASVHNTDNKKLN

FAAH = conditions: gel-based competitive ABPP fluorescence, stronger effect = higher value
[3] = target: Acyl-protein thioesterase 2 (Mus musculus) (UniProt Q9WTL7); conditions: gel-based competitive ABPP fluorescence, stronger effect = higher value
Chain of Acyl-protein thioesterase 2 (Mus musculus) (Q9WTL7 whole entry, looked up): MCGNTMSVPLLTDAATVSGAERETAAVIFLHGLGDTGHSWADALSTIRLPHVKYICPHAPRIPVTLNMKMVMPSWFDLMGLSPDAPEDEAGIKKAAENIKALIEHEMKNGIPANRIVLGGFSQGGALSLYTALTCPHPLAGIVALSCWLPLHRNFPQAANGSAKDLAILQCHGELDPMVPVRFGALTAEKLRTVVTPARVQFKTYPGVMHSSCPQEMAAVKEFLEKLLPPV

APEH = conditions: gel-based competitive ABPP fluorescence, APEH, stronger effect = higher value
[4] = target: Acyl-protein thioesterase 1 (Mus musculus) + Monoacylglycerol lipase ABHD6 (Mus musculus) + Acyl-protein thioesterase 2 (Mus musculus) (UniProt P97823+Q8R2Y0+Q9WTL7); conditions: gel-based competitive ABPP fluorescence
Chain of Acyl-protein thioesterase 1 (Mus musculus) + Monoacylglycerol lipase ABHD6 (Mus musculus) + Acyl-protein thioesterase 2 (Mus musculus) (UniProt P97823+Q8R2Y0+Q9WTL7) (P97823 whole entry, looked up): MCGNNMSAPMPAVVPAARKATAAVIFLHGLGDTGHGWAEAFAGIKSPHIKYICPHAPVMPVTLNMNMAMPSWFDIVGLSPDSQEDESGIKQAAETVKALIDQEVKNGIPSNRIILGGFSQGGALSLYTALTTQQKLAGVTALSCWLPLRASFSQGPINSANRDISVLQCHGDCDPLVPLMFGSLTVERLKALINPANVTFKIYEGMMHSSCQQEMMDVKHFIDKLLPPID
Chain of Acyl-protein thioesterase 1 (Mus musculus) + Monoacylglycerol lipase ABHD6 (Mus musculus) + Acyl-protein thioesterase 2 (Mus musculus) (UniProt P97823+Q8R2Y0+Q9WTL7) (Q8R2Y0 whole entry, looked up): as the sequence (Q8R2Y0 whole entry, looked up) above
Chain of Acyl-protein thioesterase 1 (Mus musculus) + Monoacylglycerol lipase ABHD6 (Mus musculus) + Acyl-protein thioesterase 2 (Mus musculus) (UniProt P97823+Q8R2Y0+Q9WTL7) (Q9WTL7 whole entry, looked up): as the sequence (Q9WTL7 whole entry, looked up) above

| SMILES | outcome [1] | inhibition (LYPLA1; at 10 µM) | inhibition (LYPLA1; inhibition, at 1 µM) [%] | inhibition ([2]; at 10 µM) [%] | inhibition ([2]; inhibition, at 1 µM) [%] | inhibition (FAAH; at 10 µM) | inhibition (FAAH; inhibition, at 1 µM) [%] | inhibition ([3]; LYPLA2, at 10 µM) | inhibition ([3]; LYPLA2, inhibition, at 1 µM) [%] | inhibition (APEH; at 10 µM) | inhibition (APEH; inhibition, at 1 µM) [%] | outcome [4] |
| --- | --- | --- | --- | --- | --- | --- | --- | --- | --- | --- | --- | --- |
| O=C(c1cccc(-c2ccc(-c3cn(C(=O)N4CCCCC4c4ccccc4)nn3)cc2)c1)N1CCCCC1 (stereo unspecified) | inactive | 98% | 20 | – | – | – | – | – | – | – | – | – |
| O=C(N1CCCCC1c1ccccc1)n1cc(-c2ccc(-c3ccc(CO)cc3)cc2)nn1 (stereo unspecified) | – | 90% | 10 | 98 | 98 | 90% | 0 | 90% | 10 | 25% (inactive) | 0 | – |
| O=C(c1ccc(-c2ccc(-c3cn(C(=O)N4CCCCC4c4ccccc4)nn3)cc2)cc1)N1CCCCC1 (stereo unspecified) | – | 90% | 15 | 98 | 98 | 25% (inactive) | 10 | 90% | 15 | 25% (inactive) | 0 | – |
| O=C(O)c1ccc(-c2ccc(-c3cn(C(=O)N4CCCCC4CCc4ccccc4)nn3)cc2)cc1 (stereo unspecified) | – | 15% (inactive) | 0 | 98 | 90 | 35% (inactive) | 0 | 15% (inactive) | 0 | 0% (inactive) | 0 | – |
| O=C(N1CCCCC1Cc1ccccc1)n1cc(-c2ccc(-c3cccc(CO)c3)cc2)nn1 (stereo unspecified) | – | 0% (inactive) | 0 | 98 | 98 | 25% (inactive) | 0 | 0% (inactive) | 0 | 0% (inactive) | 0 | – |
| O=C(N1CCCCC1c1ccccc1)n1cc(-c2ccc(-c3ccccc3CO)cc2)nn1 (stereo unspecified) | – | 100% | 20 | 98 | 98 | 98% | 15 | 100% | 20 | 45% (inactive) | 0 | – |
| NC(=O)c1ccc(-c2ccc(-c3cn(C(=O)N4CCCCC4c4ccccc4)nn3)cc2)cc1 (stereo unspecified) | – | 90% | 10 | 98 | 98 | 95% | 10 | 90% | 10 | 25% (inactive) | 0 | – |
| O=C(O)c1cccc(-c2ccc(-c3cn(C(=O)N4CCCCC4c4ccccc4)nn3)cc2)c1 (stereo unspecified) | – | 100% | 85 | 98 | 98 | 90% | 5 | 100% | 85 | 98% | 80 | – |
| O=C(c1ccc(-c2ccc(-c3cn(C(=O)N4CCCCC4Cc4ccccc4)nn3)cc2)cc1)N1CCCCC1 (stereo unspecified) | – | 0% (inactive) | 0 | 98 | 98 | 0% (inactive) | 0 | 0% (inactive) | 0 | 0% (inactive) | 0 | – |
| O=C(O)c1cccc(-c2ccc(-c3cn(C(=O)N4CCCCC4CCc4ccccc4)nn3)cc2)c1 (stereo unspecified) | – | 25% (inactive) | 0 | 98 | 98 | 95% | 15 | 25% (inactive) | 0 | 0% (inactive) | 0 | – |
| O=C(O)c1cccc(-c2ccc(-c3cn(C(=O)N4CCCCC4Cc4ccccc4)nn3)cc2)c1 (stereo unspecified) | inactive | 15% (inactive) | 0 | – | – | – | – | – | – | – | – | active |
| O=C(N1CCCCC1c1ccccc1)n1cc(-c2ccc(-c3cccc(CO)c3)cc2)nn1 (stereo unspecified) | inactive | 95% | 15 | – | – | – | – | – | – | – | – | active |
